Laboratory results published in publication PMC10285291, “The impact of CYP2C19 genotype on phenoconversion by concomitant medication” (Frontiers in Pharmacology, 2023).

Tests used:
CYP2C19 [1] = target: T1, CYP2C19 (Homo sapiens, UniProt P33261); test: S-mephenytoin […]'-hydroxylation inhibition in individual human liver microsomes at […] fluvoxamine, LC-MS/MS; format: cell-based; design: human liver microsomes
CYP2C19 [2] = target: T1, CYP2C19; test: in vitro; conditions: microsomes

T1 sequence (P33261 whole entry): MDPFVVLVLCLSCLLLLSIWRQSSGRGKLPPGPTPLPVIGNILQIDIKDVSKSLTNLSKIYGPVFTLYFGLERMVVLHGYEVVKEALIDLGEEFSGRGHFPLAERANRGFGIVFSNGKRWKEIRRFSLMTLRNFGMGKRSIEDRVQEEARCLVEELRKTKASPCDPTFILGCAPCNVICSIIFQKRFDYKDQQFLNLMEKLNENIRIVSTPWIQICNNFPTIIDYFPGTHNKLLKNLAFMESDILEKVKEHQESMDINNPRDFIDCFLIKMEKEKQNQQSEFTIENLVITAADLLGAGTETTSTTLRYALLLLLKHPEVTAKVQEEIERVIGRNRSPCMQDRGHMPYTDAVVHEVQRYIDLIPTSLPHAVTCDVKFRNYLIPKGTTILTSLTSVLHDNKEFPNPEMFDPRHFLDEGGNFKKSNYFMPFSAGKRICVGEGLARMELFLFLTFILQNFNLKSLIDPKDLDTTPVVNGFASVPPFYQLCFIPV

SMILES	inhibition at 1 µM (CYP2C19 [1]) [%]	KI (inactivation) (CYP2C19 [2]) [µM]
COCCCC/C(=N\OCCN)c1ccc(C(F)(F)F)cc1 [fluvoxamine]	85	
COc1ccc2[nH]c([S+]([O-])Cc3ncc(C)c(OC)c3C)nc2c1 (centres unmarked) [omeprazole]		4.47 ± 1.8
